{"source": "patent US20250221953A1", "about": "(The University of Chicago, priority 2022, published 2025)", "key": {"[1]": {"test_system": "primary CD4^+ T cells", "experiment": "In vitro function of activated mouse primary CD4+ T cells", "type": "cell-based", "details": "TVA treatment in vitro"}, "[2]": {"test_system": "anti-human CD19-CD28z-GFP CAR T cells", "experiment": "CAR-T cell expansion assay", "type": "cell-based", "details": "20 μM TVA"}, "[3]": {"test_system": "Mouse CD4^+ T cell", "experiment": "Second screen: IL-2 level of mouse CD4+ T cells"}, "[4]": {"test_system": "mouse primary CD8^+ T cells", "experiment": "cAMP level", "type": "cell-based", "details": "20 μM TVA; 0, 20 minutes, 40 minutes, 2 hours"}, "[5]": {"test_system": "human primary T cell", "experiment": "IL-2 production of human primary T cells", "type": "cell-based", "details": "20 μM TVA (FIG. 17B)", "excerpt": "Two preliminary screens were designed and performed."}, "[6]": {"test_system": "mouse primary CD8^+ T cells", "experiment": "In vitro function of activated mouse primary CD8+ T cells (cytokines, Ki-67, apoptosis, p-CREB)", "type": "cell-based", "method": "For experiments with live/dead criteria, cells were first stained with Fixable Viability Dyes (FVD) (Thermo Fisher Scientific) according to the manufacturer's instructions. Subsequent surface marker staining was performed in Flow Cytometry Staining Buffer (Thermo Fisher Scientific). Intracellular staining for flow panels containing nuclear proteins was performed using the eBioscience FoxP3/Transcription Factor Staining Buffer Set (Thermo Fisher Scientific) according to the manufacturer's instructions. For intracellular staining of cytoplasmic proteins, the Fixation/Permeabilization Solution Kit (BD Biosciences) was used according to the manufacturer's instructions. […] The cell pellets were washed again with FACS buffer, centrifuged at 300×g for 5 minutes, and incubated with antibodies in FACS buffer for 45 minutes-1 hour at room temperature. […] Treatment with sulfosuccinimidyl oleate (SSO) was performed by incubating cells with 100 μM SSO for 24 hours."}}, "data": [{"smiles": "CCCCCC/C=C/CCCCCCCCCC(=O)O", "note": "[TVA, trans-vaccenic acid]", "values": [{"measurement": "IL-2 production of primary CD4+ T cells", "setting": "[1]", "result": "increased IL-2 production"}, {"measurement": "TNF-α, IFN-γ and apoptosis of primary CD4+ T cells", "setting": "[1]", "result": "non-altered expression of TNF-α and IFN-γ or apoptosis"}, {"measurement": "in vitro expansion of CAR T cells", "setting": "[2]; 3 lymphoma patients with age between 42 and 47", "result": "improves in vitro expansion"}, {"measurement": "in vitro expansion of CAR T cells", "setting": "[2]; elder patient", "result": "do not respond to TVA treatment"}, {"measurement": "Mouse CD4^+ T cell IL-2 level changes after treatment", "setting": "[3]", "result": 155.6, "unit": "%"}, {"measurement": "cAMP levels in CD8+ T cells", "setting": "[4]", "result": "elevates cAMP levels"}, {"measurement": "IL-2 production from human primary T cells", "setting": "[5]", "result": "enhances IL-2 production"}, {"measurement": "TVA wash-off assay (TVAc vs TVAw)", "setting": "[6]; 20 μM TVA 48 hours vs 24 hours then medium without TVA", "result": "effects are reversible"}, {"measurement": "p-CREB level in CD8+ T cells, increasing concentrations", "setting": "[6]; 8-Bromo-cAMP 0.01-100 μM or TVA 10-1000 μM, 24 hours", "result": "dose-dependent manner"}, {"measurement": "reversal of SCFA-dependent suppression on CD8+ T cells", "setting": "[6]; TVA 20 μM with SCFA agonists", "result": "able to reverse SCFA-dependent suppression on CD8^+ T cells"}, {"measurement": "phosphorylation level of Lck (p-Lck) in CD8+ T cells", "setting": "[6]; TVA treatment", "result": "does not alter phosphorylation level of Lck"}, {"measurement": "phosphorylation of CREB in CD8+ T cells", "setting": "[6]; TVA treatment", "result": "promotes phosphorylation of CREB"}, {"measurement": "TNF-α and IFN-γ expression of primary CD8+ T cells", "setting": "[6]; TVA treatment in vitro", "result": "increased expression of TNF-α and IFN-γ"}, {"measurement": "suppression of CD8+ T cells by pre-treatment with 20 mM acetate (acetate first)", "setting": "[6]; acetate 12 hours, then TVA 20 μM 12 hours", "result": "can be reversed by TVA at 20 μM"}, {"measurement": "TVA level sufficient to reverse suppression of CD8+ T cells by acetate", "setting": "[6]; acetate at 20 mM, TNF-α", "result": "≤ 2", "unit": "µM"}]}]}
